The source of these data is publication PMC7230911, “Meroterpenoids from the Brown Alga Cystoseira usneoides as Potential Anti-Inflammatory and Lung Anticancer Agents” (Marine Drugs, 2020).

One data set concerns IL-1β. The data set is described as follows: IL-1β production in LPS-stimulated THP-1 macrophages (ELISA). The conditions noted are these: Homo sapiens, 1 h pretreatment, then LPS 1 μg/mL 24 h; for inhibition at 8 µg/mL: 8 μg/mL; for inhibition at 4 µg/mL: 4 μg/mL. Type of data set: cell-based. Here is the method: To determine the effects of the AMTs 1–8 on the production of TNF-α, IL-6, and IL-1β, THP-1 macrophaghes were pretreated with the compounds and then stimulated with LPS, as the triggering factor to stimulate the cytokines production. The levels of pro-inflammatory cytokines in the cell supernatants were determined using the enzyme-linked immunosorbent (ELISA) kits.
Figure 2 Meroterpenoids 1–8 inhibit LPS-induced expression of TNF-α, IL-6, and IL-1β in THP-1 macrophages (A, B, and C) respectively. Cells were pretreated for 1 h with the compounds (1, 2, 3, 4, 7, and 8 at 8 μg/mL; 5 and 6 at 4 μg/mL), followed by 24 h treatment with LPS. TNF-α (A), IL-6 (B) and IL-1β (C) contents in the culture medium were determined by ELISA. Dexametasone (DEX) was used as positive control. Data are expressed as means ± SE from three independent experiments. Statistical significance is indicated (+++p < 0.001 and +++< 0.01 vs. Control; respectively * p < 0.05, ** p < 0.01, *** p < 0.001 vs. Control + LPS).
THP-1 cells were plated at a density of 3 × 10^5 cells/mL in 24-well plates and incubated with PMA (0.2 μM) for 72 h in a humidified atmosphere of 5% CO2 at 37 °C. The macrophages were pre-treated for 1 h with AMTs 1–8 (8 μg/mL for compounds 1, 2, 3, 4, 7, and 8, and 4 μg/mL for 5 and 6) and then stimulated with lipopolysaccharide (LPS, 1 μg/mL) for another 24 h. Dexamethasone (Dex) was used as positive reference compound at 1 μM. The viability of cells was greater than 95% throughout the experiment. The levels of TNF-α, IL-6, and IL-1ß in supernatants were measured with enzyme-linked immune-sorbent assay (ELISA) kits (Diaclone GEN-PROBE, Besançon cedex, France) according to the manufacturer’s protocols. The absorbance was determined at 450 nm using a microplate reader. To calculate the concentration of cytokines, a standard curve was constructed using serial dilutions of cytokine standards provided with the kit.
Background: ELISA stands for enzyme-linked immunosorbent assay.

Data set [1] has as its system human lung adenocarcinoma A549 cells. As to the kind of experiment: Cytotoxicity against lung cancer cells A549 (MTT assay). Type of data set: cell-based. The conditions noted are these: for IC50 / viability at 50 µg/mL: Homo sapiens, A549, MTT; for IC50: 72 h of treatment, mean ± SE; for Selectivity Index SI: SI = IC50 value for normal cells (MRC-5)/IC50 value for cancer cells (A549); for viability at 50 µg/mL: 50 μg/mL, 72 h, read-out: cell viability of cancer cells. Here is the method: (§1) The effect of the AMTs 1–8 on cell viability was investigated in the human lung cancer cell line A549. […] It has been reported that compounds with SI value higher or equal to 2.0 are potentially selective. […] It is worth noting that after treatment with 50 μg/mL of these two AMTs, the cell viability was lower than 15% for cancer cells and higher than 55% for normal cells.
(§2) Figure 4 Effects of different concentrations of meroterpenoids 1–8 on the viability of human lung cancer cell line A549 and the human fetal lung fibroblastic MRC-5 cells, using MTT assay after 72 h of treatment. Data are mean ±SE of three independent experiments. * p < 0.05, ** p < 0.01 and […] between the two cell lines.
(§3) Cell proliferation was evaluated by a modified MTT assay, which measures the mitochondrial dehydrogenase activity. A total of 5 × 10^3 cells/well (MRC-5 cells) and 3 × 10^3 cells/well (A549 cells) were cultured in a 96-well plate for 24 h. Then, treatments were added to the cell culture. After 72 h of incubation, the medium was removed and 125 µL of MTT (1 mg/mL in medium) was added to each well and incubated for 4 h. Next, 80 µL of 20% sodium dodecyl sulphate (SDS) was added and incubated for 5 h at 37 °C. The optical density of each well was measured at 540 nm (Synergy HT multiwell plate spectrophotometer reader, BioTek Instruments Inc., Winooski, VT, USA) to quantify cell viability. Cell viability (%) was calculated according to the following formula: % viability = (absorbance of compounds treated cells/absorbance of control cells) × 100. The degree of selectivity of the compounds was expressed by its SI value. Each SI value was calculated using the formula: SI = IC50 normal cell/IC50 cancer cell.
On the technique in general: Tetrazolium assays rely on reduction of a dye to a coloured formazan, in cell work by metabolically active cells.

The test system of data set [2] is human fetal lung fibroblastic MRC-5 cells. The data set is described as follows: Cytotoxicity against normal lung cells MRC-5 (MTT assay). Type of data set: cell-based. The conditions noted are these: Homo sapiens, MRC5, 72 h of treatment, mean ± SE. How it is done:
as §1, §2, §3

For a further data set, the system named is A549 cells. As to the kind of experiment: Cell cycle analysis of A549 cells by flow cytometry. In kind it is cell-based, human. The conditions noted are these: IC50 concentration, 24 h; for cells at S phase: control 4.99%; for cells at G2/M phase: control 14.06%. Here is the method:
We next investigated whether the treatment with AMTs 1–8 caused any cell cycle-related event, which inhibit the viability of A549 cell line. Thus, the cells were treated for 24 h with the AMTs at concentrations of IC50 (Table 1), or with colchicine (at 0.2 μg/mL) as the positive control, and then subjected to flow cytometry analysis to evaluate the distribution of cells in the different phases of the cell cycle (Figure 5A).
Figure 5 Effects of meroterpenoids 1–8 on cell cycle distribution of A549 cells. Cells were incubated with IC50 doses of the compounds for 24 h. (A) Cells were harvested to measure the cell cycle distribution by flow cytometry. (B) Quantitative analysis of cell cycle distribution after treatment. Data represent mean ±SE from three independent experiments. * p < 0.05, ** p < 0.01, and *** p < 0.001 compared with the untreated group (control).
For cell cycle analysis by flow cytometry, A549 cells were seeded at 1 × 10^6 cells/well in 6-well plates and incubated for 24 h followed by treatment with the AMTs, at concentration of IC50, and further incubation for 24 h. Colchicine (final concentration of 0.2 μg/mL) was used as positive control. Cells were harvested after trypsinization and washed once with PBS. Then, the cells were centrifuged at 1500 rpm for 5 min (25 °C), the pellet was fixed with 1 mL of ice-cold 70% ethanol, and the samples were stored at −4 °C overnight. Then the cells were washed with PBS and incubated in the darkness with PBS containing 5 mg/mL of RNase A for 48 h at 4 °C. Subsequently, 50 µL of propidium iodide (0.1 mg/mL) was added and the cells were incubated for 1 h at 4 °C. The relative DNA content per cell was analyzed using a Beckman Coulter Cytomics FC 500 MPL (Beckman Coulter Inc, San Diego, CA, USA). The data acquisition was performed with the DML program. The analysis of the acquired data was performed with the CXP cytometer.
Background: Flow cytometry measures light scatter and fluorescence of single cells or particles in a stream.

Data set [3] is described as follows: Cytotoxicity against normal lung cells MRC-5 (MTT assay). The conditions noted are these: human, MRC-5 fetal lung fibroblast cells, 50 μg/mL, 72 h, read-out: cell viability of normal cells. Type of data set: cell-based, human. How it is done:
as §1, §2, §3

By inhibition is commonly meant how much of the control response was suppressed. A word on the IC50: it is the concentration that inhibits the measured activity by half. Take `COc1c(C)cc(O)cc1C/C=C(\C)CC(=O)/C=C(/C)CCCC(C)(O)C(=O)/C=C/C(C)(C)O` (centres unmarked) [Compound 1, usneoidone Z]: the inhibition at 8 µg/mL with IL-1β came to 74.6%. For the same molecule, in data set [1], the IC50 was found to be 8.68 ± 0.15 µg/mL and the “Selectivity Index SI” value is 1.22. Moreover, the IC50 in data set [2] worked out at 10.6 ± 0.5 µg/mL. Besides, in the data set on A549 cells, the “cells at S phase” value came out at 17.75% and the “cells at G2/M phase” value was found to be 31.15%.

As for `COc1c(C)cc(O)cc1C/C=C(\C)CC(=O)/C=C(\C)CCCC(C)(O)C(=O)/C=C/C(C)(C)O` (centres unmarked) [Compound 2, 11-hydroxy-1’-O-methylamentadione], in the data set with IL-1β, the inhibition at 8 µg/mL was found to be 84.4%. For the same molecule, in data set [1], the IC50 is 6.61 ± 0.38 µg/mL and the “Selectivity Index SI” value is reported as 1.30. In addition, the IC50 in data set [2] came out at 8.65 ± 0.18 µg/mL. In the data set on A549 cells, the “cells at S phase” value turned out to be 17.90% and the “cells at G2/M phase” value came to 31.62%.

Broadly, the viability is the share of living cells, or the viability signal relative to a control. With `COc1c(C)cc(O)cc1C/C=C(\C)CC(=O)/C=C(\C)CCCC(C)=O` [Compound 3, cystomexicone B], in the data set on IL-1β, the inhibition at 8 µg/mL was found to be 35.3%. Also, in data set [1], the viability at 50 µg/mL was less than 15%, the concentration for half-maximal inhibition (IC50) is 24.4 ± 1.71 µg/mL and the “Selectivity Index SI” value is given as 2.12. In data set [3], the viability at 72 h, 50 µg/mL was greater than 55%. For the same molecule, in data set [2], the concentration for half-maximal inhibition (IC50) was found to be 51.9 ± 2.76 µg/mL.

For the molecule `COc1c(C)cc(O)cc1C/C=C(\C)CC(=O)/C=C(/C)CCCC(C)=O` [Compound 4, cystomexicone A], in data set [1], the viability at 50 µg/mL is less than 15%, the IC50 worked out at 21 ± 1.79 µg/mL and the “Selectivity Index SI” value is recorded as 2.78. In addition, the viability at 72 h, 50 µg/mL in data set [3] is greater than 55%. Moreover, the concentration for half-maximal inhibition (IC50) in data set [2] stood at 58.4 ± 3.3 µg/mL.

As for `COc1c(C)cc(O)cc1C/C=C(\C)CC(=O)/C=C(/C)CCCC(C)C(=O)/C=C/C(C)(C)O` (stereo not drawn) [Compound 5, 6-cis-amentadione-1′-methyl ether], in the data set on IL-1β, the inhibition at 4 µg/mL was found to be 86%. For the same molecule, in data set [1], the IC50 stood at 4.56 ± 0.21 µg/mL and the “Selectivity Index SI” value came out at 1.83. Besides, in data set [2], the half-inhibitory concentration (IC50) turned out to be 8.39 ± 0.14 µg/mL.

For the molecule `COc1c(C)cc(O)cc1C/C=C(\C)CC(=O)/C=C(\C)CCCC(C)C(=O)/C=C/C(C)(C)O` (centres unmarked) [Compound 6, amentadione-1′-methyl ether], the inhibition at 4 µg/mL in the data set with IL-1β was 61.1%. Further, the IC50 in data set [1] was 6.19 ± 0.25 µg/mL; in data set [2], 8.87 ± 0.05 µg/mL. In data set [1], the “Selectivity Index SI” value turned out to be 1.43.

Regarding `COc1c(C)cc(O)cc1/C=C/C(C)(O)CC(=O)/C=C(/C)CCCC(C)C(=O)/C=C/C(C)(C)O` (centres unmarked) [Compound 7, cystodione A], in the data set on IL-1β, the inhibition at 8 µg/mL came out at 44.9%. Besides, in data set [1], the IC50 was determined as 9.31 ± 0.33 µg/mL and the “Selectivity Index SI” value is 1.55. In addition, the IC50 in data set [2] was 14.5 ± 1.14 µg/mL. Moreover, in the data set with A549 cells, the “cells at S phase” value was 13.69% and the “cells at G2/M phase” value stood at 40.19%. In the data set on A549 cells (control 71.40%), the “cells at G0/G1 phase” value is 49.31%.

As to `COc1c(C)cc(O)cc1/C=C/C(C)(O)CC(=O)/C=C(\C)CCCC(C)C(=O)/C=C/C(C)(C)O` (centres unmarked) [Compound 8, cystodione B], in the data set with IL-1β, the inhibition at 8 µg/mL came to 44.6%. For the same molecule, in data set [1], the IC50 worked out at 13.6 ± 0.55 µg/mL and the “Selectivity Index SI” value was determined as 1.28. In data set [2], the IC50 worked out at 17.83 ± 0.09 µg/mL. For the same molecule, in the data set with A549 cells, the “cells at S phase” value turned out to be 16.73% and the “cells at G2/M phase” value turned out to be 32.50%.
